Literature values in patent publication US20040202732A1, “Composition to promote weight loss” (priority 2003, published 2004).

Columns and labels:
[1] = system: prostaglandin E2 production
[2] = caffeine administration alone
[3] = three daily doses for 2 weeks, exercise 90 minutes three times weekly
[4] = mice fed CLA supplemented diets for 28 days
[5] = 12 weeks, fifty-three healthy men and women
[6] = 12 weeks, 3.4-g and higher CLA groups, sixty overweight or obese subjects
[7] = 4-week treatment

| Molecule | inhibition of TNF-alpha (TNF-alpha) | inhibition of prostaglandin E2 production [1] | increased resting energy expenditure and fat oxidation [2] | body weight loss [3] | body fat ([3]; versus placebo) | body mass [4] | increase of body protein [4] | reduction of body fat [4] | decrease of proportion of body fat [5] | body fat mass (BFM) [6] | reduction from waistlines ([7]; average) | sagittal abdominal diameter (SAD) ([7]; twenty-five men with significant abdominal fat) | inhibition of IL-1 (IL-1) |
| --- | --- | --- | --- | --- | --- | --- | --- | --- | --- | --- | --- | --- | --- |
| O=C(O[C@@H]1Cc2c(O)cc(O)cc2O[C@@H]1c1cc(O)c(O)c(O)c1)c1cc(O)c(O)c(O)c1 [EGCG, epigallocatechin galate] | can inhibit | can inhibit |  |  |  |  |  |  |  |  |  |  |  |
| Cn1c(=O)c2c(ncn2C)n(C)c1=O [caffeine] |  |  | did not occur |  |  |  |  |  |  |  |  |  |  |
| Conjugated Linoleic Acid [CLA] |  | can inhibit |  | no effects | significantly reduced | maintained body mass | up to 13% | up to 60% | 3.8% | significant reduction | an average of one-inch reduction | significant reduction | can inhibit |
